Among the data in patent US8378104B2 (OSI Pharmaceuticals, LLC, priority 2010, dated 2013) are IC50 values, retold here.

Counter-ions that a name gives are not always drawn.

One assay relates to pJNK in HCT-116 cells. In words: Phospho-JNK (Thr183/Tyr185) Meso Scale ELISA assay, TNFα-stimulated HCT-116 cells. It is filed as cell-based. As to conditions: Homo sapiens, read-out: mean HCT-116 pJNK ELISA IC50 (Col. B). A digest of the protocol:
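HCT-116 cells in 1% FCS medium were pretreated with compound for 4 hrs at 37° C, then stimulated with TNFα at 10 ng/mL final for 10 minutes. Lysates were taken in ice-cold lysis buffer with phosphatase and protease inhibitors, and phospho-JNK (Thr183/Tyr185) was measured by Meso Scale ELISA.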
A general note: ELISA stands for enzyme-linked immunosorbent assay.

The test system of the next assay is p-p38 in HCT-116 cells. In words: Phospho-p38 Meso Scale ELISA assay, TNFα-stimulated HCT-116 cells. It is filed as cell-based. To be noted: Homo sapiens, read-out: mean HCT-116 p-p38 ELISA IC50 (Col. C). In outline: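 HCT-116 cells in 1% FCS medium for 2 h, then compound for 4 h at 37° C, then TNFα at 10 ng/mL final for 10 min. Lysates captured overnight at 4° C and phospho-p38 quantified by Meso Scale electrochemiluminescence ELISA.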

For another assay, the target named is T1, TAK1-TAB1 fusion protein (Homo sapiens, UniProt O43318).
T1 construct: purchased Carna
T1 sequence (O43318 with tags, fused parts or gaps limits assumed): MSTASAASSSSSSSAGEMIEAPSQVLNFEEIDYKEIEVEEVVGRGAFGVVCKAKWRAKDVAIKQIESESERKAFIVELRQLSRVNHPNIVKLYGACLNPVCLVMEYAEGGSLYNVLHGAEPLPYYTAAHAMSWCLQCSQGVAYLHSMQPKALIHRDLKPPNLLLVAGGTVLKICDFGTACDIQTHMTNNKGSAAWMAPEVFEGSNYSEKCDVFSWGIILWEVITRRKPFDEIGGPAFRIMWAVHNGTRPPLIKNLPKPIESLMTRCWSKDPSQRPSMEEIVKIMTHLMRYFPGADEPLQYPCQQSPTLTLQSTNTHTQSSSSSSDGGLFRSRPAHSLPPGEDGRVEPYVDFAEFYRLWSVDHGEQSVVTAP
Kind of assay: TAK1 biochemical assay (AlphaScreen, GST-MAP2K7 substrate). To be noted: TAK1-TAB1 fusion protein, GST-MAP2K7 substrate; read-out: mean TAK1 IC50 (Col. A).

Usually IC50 stands for the concentration that inhibits the measured activity by half. With `CC(=O)c1cccc(-c2cc3c(-c4cnn(C5CCN(C(C)=O)CC5)c4)cnc(N)c3o2)c1` [Example 124, 1-(4-{4-[2-(3-acetylphenyl)-7-aminofuro[2,3-c]pyridin-4-yl]-1H-pyrazol-1-yl}piperidin-1-yl)ethanone], the IC50 in the assay with pJNK in HCT-116 cells was 100 to 1000 nM; with p-p38 in HCT-116 cells, 1000 to 10000 nM; at TAK1-TAB1 fusion protein it was 1000 to 10000 nM.
For the molecule `CC(=O)N1CCC(n2cc(-c3cnc(N)c4oc(C5=CCCCC5)cc34)cn2)CC1` [Example 142, 1-(4-{4-[7-amino-2-(cyclohex-1-en-1-yl)furo[2,3-c]pyridin-4-yl]-1H-pyrazol-1-yl}piperidin-1-yl)ethanone], the IC50 in the assay on pJNK in HCT-116 cells lay within 100 to 1000 nM; with p-p38 in HCT-116 cells it was 1000 to 10000 nM; on TAK1-TAB1 fusion protein, 100 to 1000 nM.
As for `Nc1ncc(-c2cnn(C3CCN(CC(F)(F)F)CC3)c2)c2cc(-c3cccc4cnccc34)oc12` [Example 84, 2-(isoquinolin-5-yl)-4-{1-[1-(2,2,2-trifluoroethyl)piperidin-4-yl]-1H-pyrazol-4-yl}furo[2,3-c]pyridin-7-amine], the 50% inhibitory concentration (IC50) with pJNK in HCT-116 cells lay in the range of 100 to 1000 nM; with p-p38 in HCT-116 cells it was 100 to 1000 nM; on TAK1-TAB1 fusion protein it was 1000 to 10000 nM.
As to `Cn1cc(-c2cnc(N)c3oc(-c4c[nH]c5cnccc45)cc23)cn1` [Example 88, 4-(1-methyl-1H-pyrazol-4-yl)-2-(1H-pyrrolo[2,3-c]pyridin-3-yl)furo[2,3-c]pyridin-7-amine trifluoroacetic acid salt], the half-inhibitory concentration (IC50) was 100 to 1000 nM in the assay on pJNK in HCT-116 cells, 100 to 1000 nM with p-p38 in HCT-116 cells and less than 100 nM at TAK1-TAB1 fusion protein.
Regarding `CC(=O)N1CCC(n2cc(-c3cnc(N)c4oc(-c5cccc6nnsc56)cc34)cn2)CC1` [Example 224, 1-(4-{4-[7-amino-2-(1,2,3-benzothiadiazol-7-yl)furo[2,3-c]pyridin-4-yl]-1H-pyrazol-1-yl}piperidin-1-yl)ethanone diformate salt], the half-maximal inhibitory concentration (IC50) in the assay with pJNK in HCT-116 cells, with p-p38 in HCT-116 cells and at TAK1-TAB1 fusion protein was less than 100 nM each time.
With `CC(=O)N1CCC(n2cc(-c3cnc(N)c4oc(-c5cnn(Cc6cccnc6)c5)cc34)cn2)CC1` [Example 148, 1-[4-(4-{7-amino-2-[1-(pyridin-3-ylmethyl)-1H-pyrazol-4-yl]furo[2,3-c]pyridin-4-yl}-1H-pyrazol-1-yl)piperidin-1-yl]ethanone], the IC50 in the assay on pJNK in HCT-116 cells was more than 10000 nM; in the assay with p-p38 in HCT-116 cells, more than 10000 nM; at TAK1-TAB1 fusion protein it was 1000 to 10000 nM.
In the case of `CN1CCC(n2cc(-c3cnc(N)c4oc(-c5cccc6cnccc56)cc34)cn2)CC1` [Example 77, 2-(isoquinolin-5-yl)-4-[1-(1-methylpiperidin-4-yl)-1H-pyrazol-4-yl]furo[2,3-c]pyridin-7-amine], the IC50 in the assay on pJNK in HCT-116 cells is less than 100 nM; in the assay with p-p38 in HCT-116 cells, 100 to 1000 nM; at TAK1-TAB1 fusion protein, 100 to 1000 nM.
As to `Nc1ncc(-c2cnn([C@@H]3C[C@@H](O)[C@@H](O)C3)c2)c2cc(-c3csc4cnccc34)oc12` [Example 311, rel-(1R,2S,4S)-4-[4-(7-amino-2-thieno[2,3-c]pyridin-3-yl-furo[2,3-c]pyridin-4-yl)-pyrazol-1-yl]-cyclopentane-1,2-diol], the IC50 in the assay with pJNK in HCT-116 cells was 100 to 1000 nM; in the assay with p-p38 in HCT-116 cells, 100 to 1000 nM; on TAK1-TAB1 fusion protein, less than 100 nM.
For the molecule `Nc1ncc(-c2cc[nH]c2)c2cc(-c3csc4cnccc34)oc12` [Example 376, 4-(1H-pyrrol-3-yl)-2-thieno[2,3-c]pyridin-3-yl-furo[2,3-c]pyridin-7-ylamine], the concentration for half-maximal inhibition (IC50) in the assay on pJNK in HCT-116 cells is 100 to 1000 nM; with p-p38 in HCT-116 cells it was 1000 to 10000 nM; at TAK1-TAB1 fusion protein it was 1000 to 10000 nM.
As to `CC(=O)N1CCC(n2cc(-c3cnc(N)c4oc(-c5ccccc5C#N)cc34)cn2)CC1` [Example 171, 2-{4-[1-(1-acetylpiperidin-4-yl)-1H-pyrazol-4-yl]-7-aminofuro[2,3-c]pyridin-2-yl}benzonitrile], the values for the IC50 in the assay with pJNK in HCT-116 cells, in the assay with p-p38 in HCT-116 cells and on TAK1-TAB1 fusion protein were 1000 to 10000 nM, 1000 to 10000 nM and 100 to 1000 nM, respectively.
For `CC(C)n1cc(-c2cnc(N)c3oc(-c4c[nH]c5cnccc45)cc23)cn1` [Example 90, 4-[1-(propan-2-yl)-1H-pyrazol-4-yl]-2-(1H-pyrrolo[2,3-c]pyridin-3-yl)furo[2,3-c]pyridin-7-amine], the IC50 was 100 to 1000 nM in the assay on pJNK in HCT-116 cells, less than 100 nM with p-p38 in HCT-116 cells and less than 100 nM at TAK1-TAB1 fusion protein.
As for `CC(=O)N1CCC(n2cc(-c3cnc(N)c4oc(-c5c[nH]c6cc(C#N)ccc56)cc34)cn2)CC1` [Example 222, 3-{4-[1-(1-acetylpiperidin-4-yl)-1H-pyrazol-4-yl]-7-aminofuro[2,3-c]pyridin-2-yl}-1H-indole-6-carbonitrile], the concentration for half-maximal inhibition (IC50) in the assay on pJNK in HCT-116 cells, in the assay with p-p38 in HCT-116 cells and on TAK1-TAB1 fusion protein was 100 to 1000 nM throughout.
For the molecule `COc1cc(-c2cc3c(-c4cnn(C5CCN(C(C)=O)CC5)c4)cnc(N)c3o2)ccc1O` [Example 131, 1-(4-{4-[7-amino-2-(4-hydroxy-3-methoxyphenyl)furo[2,3-c]pyridin-4-yl]-1H-pyrazol-1-yl}piperidin-1-yl)ethanone], the figures for the half-inhibitory concentration (IC50) with pJNK in HCT-116 cells, in the assay with p-p38 in HCT-116 cells and on TAK1-TAB1 fusion protein were 100 to 1000 nM, 1000 to 10000 nM and 100 to 1000 nM, respectively.
Consider `CC(=O)N1CCC(n2cc(-c3cnc(N)c4oc(-c5cccc6cnccc56)cc34)cn2)CC1` [Example 81, 1-(4-{4-[7-amino-2-(isoquinolin-5-yl)furo[2,3-c]pyridin-4-yl]-1H-pyrazol-1-yl}piperidin-1-yl)ethanone], for which the half-maximal inhibitory concentration (IC50) with pJNK in HCT-116 cells, in the assay on p-p38 in HCT-116 cells and on TAK1-TAB1 fusion protein was 100 to 1000 nM in each case.
Consider `CC(=O)N1CCC(n2cc(-c3cnc(N)c4oc(-c5cccn6ccnc56)cc34)cn2)CC1` [Example 221, 1-(4-{4-[7-amino-2-(imidazo[1,2-a]pyridin-8-yl)furo[2,3-c]pyridin-4-yl]-1H-pyrazol-1-yl}piperidin-1-yl)ethanone bis(trifluoroacetate)], for which the concentration for half-maximal inhibition (IC50) in the assay with pJNK in HCT-116 cells, in the assay on p-p38 in HCT-116 cells and at TAK1-TAB1 fusion protein was 100 to 1000 nM throughout.
As for `Nc1ncc(-c2cnn(C3CCNCC3)c2)c2cc(-c3cccc4cnccc34)oc12` [Example 33, 2-(isoquinolin-5-yl)-4-[1-(piperidin-4-yl)-1H-pyrazol-4-yl]furo[2,3-c]pyridine-7-amine], the 50% inhibitory concentration (IC50) in the assay with pJNK in HCT-116 cells, with p-p38 in HCT-116 cells and at TAK1-TAB1 fusion protein was 100 to 1000 nM in each case.
On to `CC(C)(C)OC(=O)N1CCC(n2cc(-c3cnc(N)c4oc(-c5cccc6cnsc56)cc34)cn2)CC1` [Example 302, 4-[4-(7-amino-2-benzo[d]isothiazol-7-yl-furo[2,3-c]pyridin-4-yl)-pyrazol-1-yl]-piperidine-1-carboxylic acid tert-butyl ester], for which the IC50 fell in the range of 100 to 1000 nM with pJNK in HCT-116 cells, 1000 to 10000 nM in the assay on p-p38 in HCT-116 cells and 100 to 1000 nM on TAK1-TAB1 fusion protein.
Regarding `Nc1ncc(-c2cnn(C3CCNCC3)c2)c2cc(-c3ccc4[nH]ccc4c3)oc12` [Example 38, 2-(1H-indol-5-yl)-4-[1-(piperidin-4-yl)-1H-pyrazol-4-yl]furo[2,3-c]pyridin-7-amine], the 50% inhibitory concentration (IC50) lay in the range of 1000 to 10000 nM in the assay on pJNK in HCT-116 cells, 1000 to 10000 nM in the assay with p-p38 in HCT-116 cells and 100 to 1000 nM at TAK1-TAB1 fusion protein.
As to `CC(=O)N1CCC(n2cc(-c3cnc(N)c4oc(-c5ccc(O)c(F)c5)cc34)cn2)CC1` [Example 123, 1-(4-{4-[7-amino-2-(3-fluoro-4-hydroxyphenyl)furo[2,3-c]pyridin-4-yl]-1H-pyrazol-1-yl}piperidin-1-yl)ethanone], the IC50 is 1000 to 10000 nM with pJNK in HCT-116 cells, 1000 to 10000 nM in the assay on p-p38 in HCT-116 cells and 100 to 1000 nM on TAK1-TAB1 fusion protein.
For the molecule `CC(=O)N1CCC(n2cc(-c3cnc(N)c4oc(-c5cccc6nn(C)cc56)cc34)cn2)CC1` [Example 192, 1-(4-{4-[7-amino-2-(2-methyl-2H-indazol-4-yl)furo[2,3-c]pyridin-4-yl]-1H-pyrazol-1-yl}piperidin-1-yl)ethanone], the half-inhibitory concentration (IC50) with pJNK in HCT-116 cells, in the assay on p-p38 in HCT-116 cells and at TAK1-TAB1 fusion protein was 1000 to 10000 nM in each case.
Regarding `CC(=O)N1CCC(n2cc(-c3cnc(N)c4oc(-c5cccc(OCC#N)c5)cc34)cn2)CC1` [Example 205, (3-{4-[1-(1-acetylpiperidin-4-yl)-1H-pyrazol-4-yl]-7-aminofuro[2,3-c]pyridin-2-yl}phenoxy)acetonitrile], the half-inhibitory concentration (IC50) with pJNK in HCT-116 cells, with p-p38 in HCT-116 cells and at TAK1-TAB1 fusion protein was 100 to 1000 nM each time.
Turning to `Nc1ncc(-c2cnn([C@H]3CC[C@H](O)CC3)c2)c2cc(-c3ccc(F)c4cnsc34)oc12` [Example 230, trans-4-{4-[7-amino-2-(4-fluoro-1,2-benzothiazol-7-yl)furo[2,3-c]pyridin-4-yl]-1H-pyrazol-1-yl}cyclohexanol diformate salt], the half-maximal inhibitory concentration (IC50) with pJNK in HCT-116 cells, in the assay on p-p38 in HCT-116 cells and on TAK1-TAB1 fusion protein was 100 to 1000 nM throughout.
Turning to `CC(=O)N1CCC(n2cc(-c3cnc(N)c4oc(-c5cnc6[nH]ccc6c5)cc34)cn2)CC1` [Example 155, 1-(4-{4-[7-amino-2-(1H-pyrrolo[2,3-b]pyridin-5-yl)furo[2,3-c]pyridin-4-yl]-1H-pyrazol-1-yl}piperidin-1-yl)ethanone], the half-maximal inhibitory concentration (IC50) was 100 to 1000 nM with pJNK in HCT-116 cells, 1000 to 10000 nM in the assay with p-p38 in HCT-116 cells and 100 to 1000 nM at TAK1-TAB1 fusion protein.
